Structures can show the parent of a compound that is named as a salt.
Assays:
mouse pain model = assay: Pharmacodynamic test on mouse pain model (acetic acid-induced writhing); assay type: in vivo, Male Kunming mice; conditions: dose 50mg/kg; writhing within 15 minutes after 1% acetic acid intraperitoneally
EL-4 lymphoma = conditions: single time
Procedure: Subcutaneous inoculation of EL-4 cell suspension to replicate a mouse lymphoma model: The EL-4 tumor tissue was ground into a suspension using a glass homogenizer, the tumor suspension was aspirated with a syringe, the number of live cells was calculated, the cell concentration was adjusted to 2.0*10^6/ml with physiological saline, and then the suspension was injected into the left armpit of mice with 0.2 ml/mouse. […] On the day of treatment, weight was measured, 20µl of blood was obtained from the orbital blood and the routine blood analysis was performed.
The data from the groups were compared with each other by T.TEST, and P<0.05 was considered as a significant difference.

[1] = 100 mg/kg intraperitoneal, blood routine test, P<0.05

| SMILES | Number of writhing (mouse pain model) | leukocytes (EL-4 lymphoma; [1]) | lymphocytes (EL-4 lymphoma; [1]) | monocytes (EL-4 lymphoma; [1]) | neutrophils (EL-4 lymphoma; [1]) | Tumor weight (EL-4 lymphoma; dose 0.1 g/kg, intraperitoneal) [g] |
| --- | --- | --- | --- | --- | --- | --- |
| COc1cccc(C2(O)CCCCC2CN(C)C)c1 (stereo not drawn) [Tramadol Hydrochloride] | 0.375±0.74 | – | – | – | – | – |
| O=P1(N(CCCl)CCCl)NCCCO1 (stereo not drawn) [cyclophosphamide, Cyclophosphamide] | – | significantly reduced | significantly reduced | significantly reduced | significantly reduced | 0.12 ± 0.03 |

— EP4600258A1, “KERATIN YK93-6, PREPARATION METHOD THEREFOR, PHARMACEUTICAL COMPOSITION THEREOF, AND USE THEREOF” (INSTITUTE OF MATERIA MEDICA, CHINESE ACADEMY OF MEDICAL …, priority 2022, dated 2024)
